In ChEMBL document CHEMBL4359892, “Discovery of novel indolylarylsulfones as potent HIV-1 NNRTIs via structure-guided scaffold morphing” (Eur J Med Chem, 2019):

Assays:
[1] = tested on: Human immunodeficiency virus 1; assay: Antiviral activity against drug resistant HIV-1 RES056 harboring reverse transcriptase K103N/Y181C double mutant infected in human MT4 cells assessed as reduction in virus-induced cytopathic effect incubated for 5 days by MTT assay; type: functional, organism-based; settings: Human immunodeficiency virus 1, RES056, MT4, 120 h
[2] = biological target: Human immunodeficiency virus type 1 reverse transcriptase (Human immunodeficiency virus 1, UniProt Q72547); assay: Inhibition of HIV1 reverse transcriptase assessed as inhibition of biotin-dUTP incorporation into template incubated for 1 hr by ELISA
[3] = Cytotoxicity against human MT4 cells assessed as reduction in cell viability incubated for 5 days by MTT assay; type: cell-based
[4] = tested on: Human immunodeficiency virus 1; assay: Antiviral activity against HIV-1 3B infected in human MT4 cells assessed as reduction in virus-induced cytopathic effect incubated for 5 days by MTT assay; type: functional, organism-based; settings: Human immunodeficiency virus 1, 3B, MT4, 120 h
[5] = Selectivity index, ratio of CC50 for human MT4 cells to EC50 for antiviral activity against HIV IIIB; type: toxicity; settings: read-out: Ratio CC50/EC50
[6] = Selectivity index, ratio of CC50 for human MT4 cells to EC50 for antiviral activity against HIV RES056; type: toxicity; settings: read-out: Ratio CC50/EC50
[7] = tested on: Human immunodeficiency virus 1; assay: Antiviral activity against drug resistant HIV-1 harboring reverse transcriptase K103N mutant infected in human MT4 cells assessed as reduction in virus-induced cytopathic effect incubated for 5 days by MTT assay; type: functional, organism-based; settings: Human immunodeficiency virus 1, MT4, 120 h
[8] = tested on: Human immunodeficiency virus 1; assay: Antiviral activity against drug resistant HIV-1 harboring reverse transcriptase L100I mutant infected in human MT4 cells assessed as reduction in virus-induced cytopathic effect incubated for 5 days by MTT assay; type: functional, organism-based; settings: Human immunodeficiency virus 1, MT4, 120 h
[9] = tested on: Human immunodeficiency virus 1; assay: Antiviral activity against drug resistant HIV-1 harboring reverse transcriptase Y188L mutant infected in human MT4 cells assessed as reduction in virus-induced cytopathic effect incubated for 5 days by MTT assay; type: functional, organism-based; settings: Human immunodeficiency virus 1, MT4, 120 h
[10] = tested on: Human immunodeficiency virus 1; assay: Antiviral activity against drug resistant HIV-1 harboring reverse transcriptase Y181C mutant infected in human MT4 cells assessed as reduction in virus-induced cytopathic effect incubated for 5 days by MTT assay; type: functional, organism-based; settings: Human immunodeficiency virus 1, MT4, 120 h
[11] = tested on: Human immunodeficiency virus 1; assay: Antiviral activity against drug resistant HIV-1 harboring reverse transcriptase F227L/V106A double mutant infected in human MT4 cells assessed as reduction in virus-induced cytopathic effect incubated for 5 days by MTT assay; type: functional, organism-based; settings: Human immunodeficiency virus 1, MT4, 120 h
[12] = tested on: Human immunodeficiency virus 1; assay: Antiviral activity against drug resistant HIV-1 harboring reverse transcriptase E138K mutant infected in human MT4 cells assessed as reduction in virus-induced cytopathic effect incubated for 5 days by MTT assay; type: functional, organism-based; settings: Human immunodeficiency virus 1, MT4, 120 h
[13] = Sub-acute toxicity in Kunming mouse assessed as increase in alveolar interstitial thickening administered for 14 days measured on day 14 by HE-staining based assay; settings: in vivo, 336 h
[14] = Sub-acute toxicity in Kunming mouse assessed as increase in alveolar hemorrhage administered for 14 days measured on day 14 by HE-staining based assay; settings: in vivo, 336 h
[15] = Sub-acute toxicity in Kunming mouse assessed as increase in proximal convoluted tubule edema administered for 14 days measured on day 14 by HE-staining based assay; settings: in vivo, 336 h

| Structure (SMILES) | EC50 [1] | IC50 [2] | CC50 at 120 h [3] | EC50 [4] | selectivity ratio [5] | selectivity ratio [6] | EC50 [7] | EC50 [8] | EC50 [9] | EC50 [10] | EC50 [11] | EC50 [12] | Activity [13] | Activity [14] | Activity [15] |
| --- | --- | --- | --- | --- | --- | --- | --- | --- | --- | --- | --- | --- | --- | --- | --- |
| Cc1cc(C)cc(S(=O)(=O)c2c(C(=O)N[C@@H]3CCN(CC(N)=O)C3)[nH]c3ccc(Cl)cc23)c1 | > 31000 nM | 1490 nM | 31000 nM | 9.8 nM | 3170 | < 1 | – | – | – | – | – | – | – | – | – |
| Cc1cc(C)cc(S(=O)(=O)c2c(C(=O)NS(=O)(=O)c3ccc(F)cc3F)[nH]c3ccc(Cl)cc23)c1 | > 121000 nM | – | 121000 nM | 3230 nM | 37 | < 1 | 15000 nM | 8860 nM | > 121000 nM | > 121000 nM | 30000 nM | 4040 nM | – | – | – |
| Cc1cc(C)cc(S(=O)(=O)c2c(C(=O)NS(=O)(=O)c3ccccc3)[nH]c3ccc(Cl)cc23)c1 | > 167000 nM | – | 167000 nM | 1730 nM | 96 | < 1 | 3230 nM | 2170 nM | > 167000 nM | 5330 nM | 7400 nM | 2010 nM | – | – | – |
| Cc1cc(C)cc(S(=O)(=O)c2c(C(N)=O)[nH]c3ccc(Cl)cc23)c1 | > 13000 nM | 560 nM | 13000 nM | 4.1 nM | 3130 | < 1 | 18 nM | 17 nM | – | 27 nM | 9.6 nM | 910 nM | – | – | – |
| Cc1cc(C#N)cc(C)c1Oc1nc(Nc2ccc(C#N)cc2)nc(N)c1Br [ETRAVIRINE] | 19 nM | – | > 4610 nM | 5.8 nM | > 792 | > 238 | 2.9 nM | 6.2 nM | 23 nM | 13 nM | 16 nM | 6 nM | Toxic | Toxic | Toxic |
| Cc1cn([C@H]2C[C@H](N=[N+]=[N-])[C@@H](CO)O2)c(=O)[nH]c1=O [ZIDOVUDINE] | > 28100 nM | – | > 7490 nM | 10 nM | > 714 | > 645 | 12 nM | 4.9 nM | 7.5 nM | 7.9 nM | 4.9 nM | 12 nM | – | – | – |
